One experiment has as its target FYN (Homo sapiens, UniProt P06241). Nature of the experiment: In vitro enzymatic phosphorylation assay, FYN. The experiment is classed as biochemical.
For another experiment, the target named is LYN (Homo sapiens, UniProt P07948). Nature of the experiment: In vitro enzymatic phosphorylation assay, LYN. The experiment is classed as biochemical.

From patent US20170196853A1 (AB SCIENCE, priority 2014, published 2017) come the findings set out here.

Molecules are shown by their SMILES.

Chain of FYN (P06241 whole entry, species assumed): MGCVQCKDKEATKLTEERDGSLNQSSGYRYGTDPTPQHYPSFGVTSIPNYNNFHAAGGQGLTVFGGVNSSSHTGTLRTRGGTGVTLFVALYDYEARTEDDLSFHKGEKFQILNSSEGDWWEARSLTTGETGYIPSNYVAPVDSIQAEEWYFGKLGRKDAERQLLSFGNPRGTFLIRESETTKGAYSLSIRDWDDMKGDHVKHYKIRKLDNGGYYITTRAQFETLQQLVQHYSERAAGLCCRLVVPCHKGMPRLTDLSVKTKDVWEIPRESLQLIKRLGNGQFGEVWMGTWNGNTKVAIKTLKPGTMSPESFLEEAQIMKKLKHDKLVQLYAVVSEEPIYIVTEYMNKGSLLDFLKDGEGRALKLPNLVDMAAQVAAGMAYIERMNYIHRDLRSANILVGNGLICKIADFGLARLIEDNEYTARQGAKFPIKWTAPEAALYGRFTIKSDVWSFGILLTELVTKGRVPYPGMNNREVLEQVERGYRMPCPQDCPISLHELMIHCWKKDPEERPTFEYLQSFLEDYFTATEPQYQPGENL
Chain of LYN (P07948 whole entry, species assumed): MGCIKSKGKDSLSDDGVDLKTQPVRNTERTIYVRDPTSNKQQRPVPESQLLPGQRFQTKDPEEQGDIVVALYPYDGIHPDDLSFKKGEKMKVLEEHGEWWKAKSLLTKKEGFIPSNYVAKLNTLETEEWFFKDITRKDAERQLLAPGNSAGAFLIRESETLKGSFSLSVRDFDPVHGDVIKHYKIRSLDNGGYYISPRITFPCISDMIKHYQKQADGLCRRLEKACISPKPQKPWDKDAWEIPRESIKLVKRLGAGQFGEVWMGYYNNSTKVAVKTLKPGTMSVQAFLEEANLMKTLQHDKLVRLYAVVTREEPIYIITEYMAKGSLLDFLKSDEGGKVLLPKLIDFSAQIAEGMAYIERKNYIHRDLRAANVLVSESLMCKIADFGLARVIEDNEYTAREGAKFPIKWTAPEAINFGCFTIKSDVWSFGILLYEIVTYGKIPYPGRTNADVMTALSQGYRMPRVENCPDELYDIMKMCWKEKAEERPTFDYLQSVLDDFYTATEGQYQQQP

One may read the IC50 as the concentration needed to halve the response being measured. The low end stands for greater potency, the high end for weaker potency. Take `Cc1ccc(NC(=O)c2ccc(CN3CCN(C)CC3)cc2)cc1Nc1nc(-c2cccnc2)cs1` [masitinib, 4-(4-methylpiperazin-1-ylmethyl)-N-[4-methyl-3-(4-pyridin-3y1thiazol-2-ylamino)phenyl]benzamide]: the half-maximal inhibitory concentration (IC50) was 240 nM at FYN and 220 nM against LYN.
